Usually IC50 stands for the concentration at which inhibition is half-maximal. By EC50 is commonly meant the concentration that produces a half-maximal response. A word on the CC50: it is the concentration at which the toxic effect on the cells reaches its halfway point.

The source of these data is ChEMBL document CHEMBL4602719, “Discovery of Potent, Selective, and Orally Bioavailable Inhibitors of USP7 with In Vivo Antitumor Activity” (J Med Chem, 2020).

Data set [1] has as its target T1, Ubiquitin carboxyl-terminal hydrolase 7 (Homo sapiens, UniProt Q93009). The data set is described as follows: Inhibition of recombinant full length USP7 (unknown origin) using ubiquintin-rhodamine as substrate preincubated for 30 mins followed by substrate addition measured after 1 hr by fluorescence-based Envision plate reader assay.
In data set [2] the target is T1, Ubiquitin carboxyl-terminal hydrolase 7. Briefly: Inhibition of USP7 in human RKO cells transfected with p53 luciferase reporter vector assessed as increase in p53-dependent luciferase activity measured after 18 hrs by BrightGlo luciferase assay. Type of data set: cell-based.
Data set [3] can be described thus: Cytotoxicity against human RKO cells assessed as reduction in cellular ATP level measured after 5 days by CellTiter-Glo assay. Type of data set: cell-based. In general terms: ATP-based viability assays read luminescence as a measure of living cells.
Data set [4] concerns the target Voltage-gated inwardly rectifying potassium channel KCNH2 (Homo sapiens, UniProt Q12809). Briefly: Inhibition of human ERG.
In data set [5] the target is T2, Ubiquitin carboxyl-terminal hydrolase isozyme L3 (Homo sapiens, UniProt P15374).
T2 sequence (P15374 whole entry): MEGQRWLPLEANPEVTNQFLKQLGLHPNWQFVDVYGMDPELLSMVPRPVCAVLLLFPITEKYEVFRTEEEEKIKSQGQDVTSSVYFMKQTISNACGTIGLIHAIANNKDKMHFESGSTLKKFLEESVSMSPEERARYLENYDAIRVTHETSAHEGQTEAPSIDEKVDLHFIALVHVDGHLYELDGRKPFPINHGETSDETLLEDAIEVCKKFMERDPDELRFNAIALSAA
The data set is described as follows: Inhibition of human GST-tagged UCHL3 expressed in Escherichia coli assessed as cleavage of Ubiquitin-Rhodamine110-glycine to Ubiquitin and Rhodamine110-glycine using Ubiquitin-Rhodamine110-glycine as substrate by fluorescence based analysis.

Data set [6] deals with Ubiquitin carboxyl-terminal hydrolase 2 (Homo sapiens, UniProt O75604). Briefly: Inhibition of human GST-tagged USP2 isoform 4 expressed in Escherichia coli assessed as cleavage of Ubiquitin-Rhodamine110-glycine to Ubiquitin and Rhodamine110-glycine using Ubiquitin-Rhodamine110-glycine as substrate by fluorescence based analysis.
Data set [7] concerns the target Ubiquitin carboxyl-terminal hydrolase 9X (Homo sapiens, UniProt Q93008). Briefly: Inhibition of human GST-tagged USP9X CD (1554 to 1995 residues) expressed in Escherichia coli assessed as cleavage of Ubiquitin-Rhodamine110-glycine to Ubiquitin and Rhodamine110-glycine using Ubiquitin-Rhodamine110-glycine as substrate by fluorescence based analysis.
Data set [8] addresses Ubiquitin carboxyl-terminal hydrolase 11 (Homo sapiens, UniProt P51784). Briefly: Inhibition of USP11 (unknown origin).
For data set [9], the target named is Ubiquitin carboxyl-terminal hydrolase 16 (Homo sapiens, UniProt Q9Y5T5). Briefly: Inhibition of USP16 (unknown origin).
For data set [10], the target named is Ubiquitin carboxyl-terminal hydrolase 19 (Homo sapiens, UniProt O94966). Briefly: Inhibition of human GST-tagged USP19 (1 to 1290 residues) expressed in Escherichia coli assessed as cleavage of Ubiquitin-Rhodamine110-glycine to Ubiquitin and Rhodamine110-glycine using Ubiquitin-Rhodamine110-glycine as substrate by fluorescence based analysis.
Data set [11] addresses Ubiquitin carboxyl-terminal hydrolase 21 (Homo sapiens, UniProt Q9UK80). The data set is described as follows: Inhibition of human GST-tagged USP21 CD (196 to 565 residues) expressed in Escherichia coli assessed as cleavage of Ubiquitin-Rhodamine110-glycine to Ubiquitin and Rhodamine110-glycine using Ubiquitin-Rhodamine110-glycine as substrate by fluorescence based analysis.

The target in data set [12] is Ubiquitin carboxyl-terminal hydrolase 28 (Homo sapiens, UniProt Q96RU2). Briefly: Inhibition of human GST-tagged USP28 expressed in Escherichia coli assessed as cleavage of Ubiquitin-Rhodamine110-glycine to Ubiquitin and Rhodamine110-glycine using Ubiquitin-Rhodamine110-glycine as substrate by fluorescence based analysis.
Data set [13] concerns the target Ubiquitin carboxyl-terminal hydrolase 30 (Homo sapiens, UniProt Q70CQ3). The data set is described as follows: Inhibition of human USP30 CD (57 to 517 residues) expressed in Escherichia coli assessed as cleavage of Ubiquitin-Rhodamine110-glycine to Ubiquitin and Rhodamine110-glycine using Ubiquitin-Rhodamine110-glycine as substrate by fluorescence based analysis.

Data set [14] concerns the target Ubiquitin carboxyl-terminal hydrolase 36 (Homo sapiens, UniProt Q9P275). The data set is described as follows: Inhibition of human GST-tagged USP36 CD (81 to 461 residues) expressed in Escherichia coli assessed as cleavage of Ubiquitin-Rhodamine110-glycine to Ubiquitin and Rhodamine110-glycine using Ubiquitin-Rhodamine110-glycine as substrate by fluorescence based analysis.

The target of data set [15] is Ubiquitin carboxyl-terminal hydrolase CYLD (Homo sapiens, UniProt Q9NQC7). The data set is described as follows: Inhibition of human 6His-tagged CYLD expressed in baculovirus infected Sf21 insect cells assessed as cleavage of Ubiquitin-Rhodamine110-glycine to Ubiquitin and Rhodamine110-glycine using Ubiquitin-Rhodamine110-glycine as substrate by fluorescence based analysis.

Data set [16] concerns the target Ubiquitin carboxyl-terminal hydrolase isozyme L1 (Homo sapiens, UniProt P09936). Briefly: Inhibition of human 6His-tagged UCHL1 expressed in Escherichia coli assessed as cleavage of Ubiquitin-Rhodamine110-glycine to Ubiquitin and Rhodamine110-glycine using Ubiquitin-Rhodamine110-glycine as substrate by fluorescence based analysis.
Data set [17] deals with Ubiquitin carboxyl-terminal hydrolase isozyme L5 (Homo sapiens, UniProt Q9Y5K5). The data set is described as follows: Inhibition of human GST-tagged UCHL5 expressed in Escherichia coli assessed as cleavage of Ubiquitin-Rhodamine110-glycine to Ubiquitin and Rhodamine110-glycine using Ubiquitin-Rhodamine110-glycine as substrate by fluorescence based analysis.
In data set [18] the target is OTU domain-containing protein 1 (Homo sapiens, UniProt Q5VV17). The data set is described as follows: Inhibition of human 6His-tagged OTUD1 CD (270 to 481 residues) expressed in Escherichia coli assessed as cleavage of Ubiquitin-Rhodamine110-glycine to Ubiquitin and Rhodamine110-glycine using Ubiquitin-Rhodamine110-glycine as substrate by fluorescence based analysis.

Data set [19] can be described thus: Inhibition of human GST-tagged OTUD5 P177S mutant expressed in Escherichia coli assessed as cleavage of Ubiquitin-Rhodamine110-glycine to Ubiquitin and Rhodamine110-glycine using Ubiquitin-Rhodamine110-glycine as substrate by fluorescence based analysis.
The target in data set [20] is OTU domain-containing protein 6A (Homo sapiens, UniProt Q7L8S5). Briefly: Inhibition of human His6-tagged OTUD6A expressed in Escherichia coli assessed as cleavage of Ubiquitin-Rhodamine110-glycine to Ubiquitin and Rhodamine110-glycine using Ubiquitin-Rhodamine110-glycine as substrate by fluorescence based analysis.
Chain of OTU domain-containing protein 6A (Q7L8S5 whole entry, the tested form may be a part): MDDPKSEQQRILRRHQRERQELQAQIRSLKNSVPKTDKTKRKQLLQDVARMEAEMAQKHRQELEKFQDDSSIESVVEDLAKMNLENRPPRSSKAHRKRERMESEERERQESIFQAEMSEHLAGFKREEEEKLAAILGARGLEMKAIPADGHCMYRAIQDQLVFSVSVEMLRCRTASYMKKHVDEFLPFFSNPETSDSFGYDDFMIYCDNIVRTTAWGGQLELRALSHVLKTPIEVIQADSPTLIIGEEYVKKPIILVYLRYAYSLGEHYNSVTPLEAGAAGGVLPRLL
Data set [21] has as its target OTU domain-containing protein 7B (Homo sapiens, UniProt Q6GQQ9). Briefly: Inhibition of cezanne (unknown origin).
Data set [22] has as its target AMSH-like protease (Homo sapiens, UniProt Q96FJ0). Briefly: Inhibition of human GST-tagged AMSH-LP CD (264 to 436 residues) expressed in Escherichia coli assessed as cleavage of Ubiquitin-Rhodamine110-glycine to Ubiquitin and Rhodamine110-glycine using Ubiquitin-Rhodamine110-glycine as substrate by fluorescence based analysis.
Data set [23] concerns the target Ataxin-3-like protein (Homo sapiens, UniProt Q9H3M9). The data set is described as follows: Inhibition of human 6His-tagged Ataxin-3L expressed in Escherichia coli assessed as cleavage of Ubiquitin-Rhodamine110-glycine to Ubiquitin and Rhodamine110-glycine using Ubiquitin-Rhodamine110-glycine as substrate by fluorescence based analysis.

A value given as a limit tells only on which side of the number the result lay.

T1 sequence (Q93009 whole entry): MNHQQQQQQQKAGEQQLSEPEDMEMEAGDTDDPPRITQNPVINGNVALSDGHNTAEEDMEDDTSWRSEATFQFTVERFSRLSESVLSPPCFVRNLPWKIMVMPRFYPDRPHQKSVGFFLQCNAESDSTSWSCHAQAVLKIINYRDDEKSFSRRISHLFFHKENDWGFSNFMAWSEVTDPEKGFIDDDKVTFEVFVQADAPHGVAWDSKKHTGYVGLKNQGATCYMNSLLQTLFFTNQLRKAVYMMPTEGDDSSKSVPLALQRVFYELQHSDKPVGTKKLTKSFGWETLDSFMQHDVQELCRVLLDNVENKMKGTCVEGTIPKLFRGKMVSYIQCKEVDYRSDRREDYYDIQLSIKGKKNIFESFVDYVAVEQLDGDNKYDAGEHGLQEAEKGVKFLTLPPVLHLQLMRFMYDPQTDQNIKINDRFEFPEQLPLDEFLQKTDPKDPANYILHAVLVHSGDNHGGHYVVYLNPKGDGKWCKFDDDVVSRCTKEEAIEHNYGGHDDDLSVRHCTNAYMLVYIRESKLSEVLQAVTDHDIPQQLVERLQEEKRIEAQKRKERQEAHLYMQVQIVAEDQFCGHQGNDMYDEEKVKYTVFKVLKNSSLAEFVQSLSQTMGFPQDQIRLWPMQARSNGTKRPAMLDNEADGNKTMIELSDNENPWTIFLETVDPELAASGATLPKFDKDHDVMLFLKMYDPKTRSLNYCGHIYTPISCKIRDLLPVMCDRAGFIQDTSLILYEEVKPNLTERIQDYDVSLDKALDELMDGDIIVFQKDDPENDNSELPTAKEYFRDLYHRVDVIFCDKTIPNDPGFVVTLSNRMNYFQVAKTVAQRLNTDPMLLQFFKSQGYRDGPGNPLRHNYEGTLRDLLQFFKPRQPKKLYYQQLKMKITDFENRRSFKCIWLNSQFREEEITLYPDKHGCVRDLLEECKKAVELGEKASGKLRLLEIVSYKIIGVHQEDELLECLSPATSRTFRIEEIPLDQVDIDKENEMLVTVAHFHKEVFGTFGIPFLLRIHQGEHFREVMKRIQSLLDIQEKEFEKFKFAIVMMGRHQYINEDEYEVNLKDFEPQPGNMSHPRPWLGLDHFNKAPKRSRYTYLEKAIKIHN
Chain of Ataxin-3-like protein (Q9H3M9 whole entry): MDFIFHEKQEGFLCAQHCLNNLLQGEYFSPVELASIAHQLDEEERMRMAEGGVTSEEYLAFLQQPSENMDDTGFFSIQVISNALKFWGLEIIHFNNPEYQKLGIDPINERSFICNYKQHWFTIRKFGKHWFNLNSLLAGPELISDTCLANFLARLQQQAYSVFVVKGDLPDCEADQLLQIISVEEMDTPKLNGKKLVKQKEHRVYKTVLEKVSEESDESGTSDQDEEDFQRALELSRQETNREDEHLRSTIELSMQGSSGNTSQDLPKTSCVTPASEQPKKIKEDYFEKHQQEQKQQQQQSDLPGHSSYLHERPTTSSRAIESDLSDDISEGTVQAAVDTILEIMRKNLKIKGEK
Chain of Ubiquitin carboxyl-terminal hydrolase 30 (Q70CQ3 whole entry, the tested form may be a part): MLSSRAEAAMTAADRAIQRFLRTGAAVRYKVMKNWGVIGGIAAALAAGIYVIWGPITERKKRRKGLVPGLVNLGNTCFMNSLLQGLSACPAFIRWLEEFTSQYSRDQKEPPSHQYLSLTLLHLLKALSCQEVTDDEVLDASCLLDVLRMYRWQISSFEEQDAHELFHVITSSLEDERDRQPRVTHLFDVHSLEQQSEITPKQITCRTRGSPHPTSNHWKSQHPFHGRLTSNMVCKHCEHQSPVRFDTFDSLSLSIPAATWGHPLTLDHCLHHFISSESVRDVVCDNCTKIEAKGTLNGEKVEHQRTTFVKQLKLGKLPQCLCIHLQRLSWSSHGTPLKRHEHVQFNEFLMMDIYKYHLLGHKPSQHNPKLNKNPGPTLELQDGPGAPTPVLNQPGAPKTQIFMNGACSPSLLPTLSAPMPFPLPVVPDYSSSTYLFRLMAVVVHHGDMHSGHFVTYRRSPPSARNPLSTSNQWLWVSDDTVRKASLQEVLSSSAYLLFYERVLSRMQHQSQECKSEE
Chain of Ubiquitin carboxyl-terminal hydrolase 9X (Q93008 whole entry, the tested form may be a part): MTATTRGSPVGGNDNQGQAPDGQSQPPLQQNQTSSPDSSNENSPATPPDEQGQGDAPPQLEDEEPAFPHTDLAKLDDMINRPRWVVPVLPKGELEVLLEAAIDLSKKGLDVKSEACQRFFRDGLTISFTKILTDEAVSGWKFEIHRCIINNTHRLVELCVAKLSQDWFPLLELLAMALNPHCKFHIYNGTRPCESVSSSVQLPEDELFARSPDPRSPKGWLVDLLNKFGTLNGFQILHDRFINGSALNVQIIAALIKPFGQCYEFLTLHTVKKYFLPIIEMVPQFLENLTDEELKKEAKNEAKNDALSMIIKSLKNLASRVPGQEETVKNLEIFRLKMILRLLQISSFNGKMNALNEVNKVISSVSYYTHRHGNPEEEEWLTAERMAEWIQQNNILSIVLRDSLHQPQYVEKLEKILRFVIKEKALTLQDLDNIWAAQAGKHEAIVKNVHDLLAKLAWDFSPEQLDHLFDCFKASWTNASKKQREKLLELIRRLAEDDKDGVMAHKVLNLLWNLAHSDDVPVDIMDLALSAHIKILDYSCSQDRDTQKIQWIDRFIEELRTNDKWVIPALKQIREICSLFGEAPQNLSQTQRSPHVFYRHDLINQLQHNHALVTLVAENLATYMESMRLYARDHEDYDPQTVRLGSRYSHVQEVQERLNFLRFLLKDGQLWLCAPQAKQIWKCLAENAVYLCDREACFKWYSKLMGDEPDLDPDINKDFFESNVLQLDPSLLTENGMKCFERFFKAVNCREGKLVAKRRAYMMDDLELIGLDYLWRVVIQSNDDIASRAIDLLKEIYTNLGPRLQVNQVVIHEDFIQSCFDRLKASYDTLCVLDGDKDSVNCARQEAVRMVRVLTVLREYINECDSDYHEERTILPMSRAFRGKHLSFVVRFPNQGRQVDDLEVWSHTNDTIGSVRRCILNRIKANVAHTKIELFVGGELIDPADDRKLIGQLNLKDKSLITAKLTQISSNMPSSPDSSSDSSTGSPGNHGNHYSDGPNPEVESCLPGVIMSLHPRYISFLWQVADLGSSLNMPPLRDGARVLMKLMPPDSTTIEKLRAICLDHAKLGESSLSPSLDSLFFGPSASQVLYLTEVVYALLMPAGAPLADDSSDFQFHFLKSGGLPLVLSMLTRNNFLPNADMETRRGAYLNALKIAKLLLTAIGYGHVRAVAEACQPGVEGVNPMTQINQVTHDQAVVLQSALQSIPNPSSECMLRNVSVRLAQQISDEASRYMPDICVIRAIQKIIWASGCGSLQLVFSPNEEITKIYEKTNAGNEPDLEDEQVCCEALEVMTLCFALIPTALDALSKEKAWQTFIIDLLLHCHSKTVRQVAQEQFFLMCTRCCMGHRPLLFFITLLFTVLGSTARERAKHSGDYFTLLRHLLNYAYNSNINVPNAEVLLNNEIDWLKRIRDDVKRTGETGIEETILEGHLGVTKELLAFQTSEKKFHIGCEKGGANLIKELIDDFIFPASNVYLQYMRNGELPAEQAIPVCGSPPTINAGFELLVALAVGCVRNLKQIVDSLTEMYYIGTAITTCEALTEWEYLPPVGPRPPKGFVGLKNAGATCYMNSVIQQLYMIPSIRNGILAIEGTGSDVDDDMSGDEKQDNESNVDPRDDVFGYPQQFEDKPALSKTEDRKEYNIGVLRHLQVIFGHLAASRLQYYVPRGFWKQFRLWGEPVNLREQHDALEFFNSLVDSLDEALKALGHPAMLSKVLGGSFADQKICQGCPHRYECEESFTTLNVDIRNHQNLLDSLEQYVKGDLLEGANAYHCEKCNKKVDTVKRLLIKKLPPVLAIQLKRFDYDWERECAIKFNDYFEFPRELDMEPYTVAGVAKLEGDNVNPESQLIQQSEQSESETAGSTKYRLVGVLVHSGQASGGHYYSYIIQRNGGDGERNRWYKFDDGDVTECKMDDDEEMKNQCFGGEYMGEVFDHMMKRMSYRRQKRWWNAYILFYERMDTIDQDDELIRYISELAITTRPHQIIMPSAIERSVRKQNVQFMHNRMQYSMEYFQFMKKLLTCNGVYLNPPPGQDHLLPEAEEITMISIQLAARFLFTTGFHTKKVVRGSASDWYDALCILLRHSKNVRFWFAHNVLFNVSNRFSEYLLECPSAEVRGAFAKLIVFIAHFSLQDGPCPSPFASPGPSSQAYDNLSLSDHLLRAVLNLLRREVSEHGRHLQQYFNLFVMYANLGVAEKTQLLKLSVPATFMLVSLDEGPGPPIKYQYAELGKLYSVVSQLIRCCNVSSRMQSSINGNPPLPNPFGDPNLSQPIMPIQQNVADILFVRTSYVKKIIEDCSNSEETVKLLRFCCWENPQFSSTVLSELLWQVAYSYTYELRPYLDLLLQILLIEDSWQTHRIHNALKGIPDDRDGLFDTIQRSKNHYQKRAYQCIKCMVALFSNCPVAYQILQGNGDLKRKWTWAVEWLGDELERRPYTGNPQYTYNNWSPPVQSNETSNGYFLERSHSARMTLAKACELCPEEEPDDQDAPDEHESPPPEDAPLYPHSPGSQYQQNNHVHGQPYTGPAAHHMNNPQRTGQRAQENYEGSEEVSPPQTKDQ
Chain of Ubiquitin carboxyl-terminal hydrolase isozyme L1 (P09936 whole entry): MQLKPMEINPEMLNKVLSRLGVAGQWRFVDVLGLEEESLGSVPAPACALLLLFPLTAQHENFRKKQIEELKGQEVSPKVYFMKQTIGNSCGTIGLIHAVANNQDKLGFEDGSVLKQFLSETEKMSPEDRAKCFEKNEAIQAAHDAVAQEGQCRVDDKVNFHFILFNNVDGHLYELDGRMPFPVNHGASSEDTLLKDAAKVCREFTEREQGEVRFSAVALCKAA

With `Cc1cc(Cl)cc(-c2ccnc3cc(CN4C(=O)C5C(C4=O)C5(C)C)sc23)c1O[C@@H]1CCNC[C@@H]1C` (stereo partly drawn), the half-inhibitory concentration (IC50) was 0.00018 µM in data set [1]; 0.4 µM in data set [4]; more than 10 µM in data set [5]; more than 10 µM in data set [6]; more than 10 µM in data set [7]; more than 10 µM in data set [8]. Also, the IC50 in data set [9], in data set [10], in data set [11], in data set [12], in data set [13] and in data set [14] was more than 10 µM in each case. In addition, the IC50 in [15], in data set [16], in [17], in [18], in [19] and in data set [20] was more than 10 µM throughout. Further, the IC50 in [21], in [22] and in data set [23] was more than 10 µM each time. Besides, the EC50 in [2] was determined as 0.065 µM. Besides, the CC50 at 120 h in [3] was 3.4 µM.
